The values that follow come from ChEMBL document CHEMBL5046291, “Evodiamine-Inspired Topoisomerase-Histone Deacetylase Dual Inhibitors: Novel Orally Active Antitumor Agents for Leukemia Therapy” (J Med Chem, 2022).

Assay [1] has as its system MCF7. Kind of assay: Antiproliferative activity against human MCF7 cells assessed as cell growth inhibition incubated for 8 hrs by CCK8 assay. The assay is classed as functional, cell-based. To be noted: MCF7, 8 h. On the technique in general: Formazan colour is commonly taken as a measure of viable cells.
Assay [2] concerns A549. Kind of assay: Antiproliferative activity against human A549 cells assessed as cell growth inhibition incubated for 8 hrs by CCK8 assay. It is filed as functional, cell-based. The note with it: A549, 8 h.
Assay [3] relates to HCT-116. Description: Antiproliferative activity against human HCT-116 cells assessed as cell growth inhibition incubated for 8 hrs by CCK8 assay. It is filed as functional, cell-based. The note with it: HCT-116, 8 h.
Assay [4] relates to HepG2. Kind of assay: Antiproliferative activity against human HepG2 cells assessed as cell growth inhibition incubated for 8 hrs by CCK8 assay. It is filed as functional, cell-based. The note with it: HepG2, 8 h.
Assay [5] deals with K562. Kind of assay: Antiproliferative activity against human K562 cells assessed as cell growth inhibition incubated for 8 hrs by CCK8 assay. The assay is classed as functional, cell-based. The note with it: K562, 8 h.
Assay [6] concerns HEL. Kind of assay: Antiproliferative activity against HEL cells assessed as cell growth inhibition incubated for 8 hrs by CCK8 assay. The assay is classed as functional, cell-based. The note with it: Homo sapiens.
In assay [7] the test system is HEL. Kind of assay: Synergistic antiproliferative effect on HEL cells assessed as fractional inhibitory concentration index at 10 uM in presence of vorinostat. It is filed as functional, Homo sapiens.
For assay [8], the system named is HEL. Kind of assay: Synergistic antiproliferative effect on HEL cells assessed as fractional inhibitory concentration index at 3.33 uM in presence of vorinostat. The assay is classed as functional, Homo sapiens.
The test system of assay [9] is HEL. Description: Synergistic antiproliferative effect on HEL cells assessed as fractional inhibitory concentration index at 1.11 uM in presence of vorinostat. The assay is classed as functional, Homo sapiens.
The subject of assay [10] is HEL. Kind of assay: Synergistic antiproliferative effect on HEL cells assessed as fractional inhibitory concentration index at 0.37 uM in presence of vorinostat. The assay is classed as functional, Homo sapiens.
For assay [11], the system named is HEL. Description: Synergistic antiproliferative effect on HEL cells assessed as fractional inhibitory concentration index at 0.12 uM in presence of vorinostat. The assay is classed as functional, Homo sapiens.
The subject of assay [12] is HEL. Description: Synergistic antiproliferative effect on HEL cells assessed as fractional inhibitory concentration index at 0.04 uM in presence of vorinostat. It is filed as functional, Homo sapiens.
The subject of assay [13] is HEL. Kind of assay: Synergistic antiproliferative effect on HEL cells assessed as fractional inhibitory concentration index at 0.014 uM in presence of vorinostat. It is filed as functional, Homo sapiens.
The test system of assay [14] is HEL. Kind of assay: Synergistic antiproliferative effect on HEL cells assessed as fractional inhibitory concentration index at 0.0046 uM in presence of vorinostat. It is filed as functional, Homo sapiens.
Assay [15] relates to HEL. Description: Synergistic antiproliferative effect on HEL cells assessed as combination index at 10 uM in presence of vorinostat. The assay is classed as functional, Homo sapiens.
For assay [16], the system named is HEL. Description: Synergistic antiproliferative effect on HEL cells assessed as combination index at 3.33 uM in presence of vorinostat. It is filed as functional, Homo sapiens.
The subject of assay [17] is HEL. Kind of assay: Synergistic antiproliferative effect on HEL cells assessed as combination index at 1.11 uM in presence of vorinostat. It is filed as functional, Homo sapiens.
Assay [18] deals with HEL. Description: Synergistic antiproliferative effect on HEL cells assessed as combination index at 0.37 uM in presence of vorinostat. The assay is classed as functional, Homo sapiens.
In assay [19] the test system is HEL. Description: Synergistic antiproliferative effect on HEL cells assessed as combination index at 0.12 uM in presence of vorinostat. It is filed as functional, Homo sapiens.
The subject of assay [20] is HEL. Description: Synergistic antiproliferative effect on HEL cells assessed as combination index at 0.04 uM in presence of vorinostat. It is filed as functional, Homo sapiens.
The test system of assay [21] is HEL. Kind of assay: Synergistic antiproliferative effect on HEL cells assessed as combination index at 0.014 uM in presence of vorinostat. It is filed as functional, Homo sapiens.
The test system of assay [22] is HEL. Kind of assay: Synergistic antiproliferative effect on HEL cells assessed as combination index at 0.046 uM in presence of vorinostat. It is filed as functional, Homo sapiens.
In assay [23] the test system is HEL. Description: Antitumor activity against HEL cells xenografted in BALB/C mouse assessed as tumor growth inhibition at 10 mg/kg, po qd for 14 days consecutively by caliper method relative to control. It is filed as functional, Homo sapiens. The note with it: 336 h, time 14 day, read-out: TGI.
Assay [24] deals with HEL. Kind of assay: Antitumor activity against HEL cells xenografted in BALB/C mouse assessed as T/C value at 10 mg/kg, po qd for 14 days consecutively by caliper method relative to control. The note with it: time 14 day. The assay is classed as functional, Homo sapiens.
In assay [25] the test system is HEL. Description: Induction of apoptosis in HEL cells assessed as apoptotic cells at 0.1 uM incubated for 48 hrs by annexin V-FITC/PI staining based flow cytometry (reference value: 3.95%). The assay is classed as functional, Homo sapiens. (In general: In flow cytometry, cells or beads pass a laser one at a time.)
The test system of assay [26] is HEL. Description: Induction of apoptosis in HEL cells assessed as apoptotic cells at 0.5 uM incubated for 48 hrs by annexin V-FITC/PI staining based flow cytometry (reference value: 4.23%). The assay is classed as functional, Homo sapiens.

For the molecule `CN1c2ccc(F)cc2C(=O)N2CCc3c([nH]c4ccc(O)cc34)C21` (configuration not stated), the IC50 in [1] came out at 760 nM; in assay [2], 530 nM; in assay [3], 190 nM; in assay [4], 430 nM; in assay [5], 230 nM; in assay [6], 130 nM. Besides, the “fractional inhibitory concentration index (FICI)” value in [7] worked out at 0.86; in assay [8], 0.862; in [9] it was 0.852; in [10], 0.868; in assay [11], 0.853; in [12], 0.836. For the same molecule, the “fractional inhibitory concentration index (FICI)” value in [13] stood at 0.802; in assay [14] it was 0.727. The CI in assay [15] came out at 1.03; in [16] it was 0.954; in [17], 0.954; in [18] it was 0.956; in [19] it was 0.798; in assay [20] it was 0.784. The values for the CI in [21] and in assay [22] were 0.561 and 0.453, respectively. For the same molecule, the inhibition in vivo at 10 mg/kg in [23] came out at 7.4%. For the same molecule, the T/C in assay [24] is recorded as 94.9%.
For the molecule `O=C(CCCCCCC(=O)Nc1ccccc1)NO` [VORINOSTAT], the values for the Activity in assay [25] and in [26] were 15.83% and 46.97%, respectively. Further, the T/C in assay [24] is listed as 88.3%.

In general, IC50 refers to the midpoint of a concentration-inhibition curve. Usually T/C stands for the result in the treated group divided by that in the control group, in per cent.
